Consider one compound from patent US10973810B2, “Methods for the treatment of neurological disorders” (Yumanity Therapeutics, Inc., priority 2017, dated 2021).

For the test, the system named is alpha-synuclein transfected U2OS cells. As to the kind of experiment: U2OS ATP assay of alpha-synuclein toxicity. Type of test: cell-based, human. Conditions: 72 h after transfection/treatment; titration; normalized to DMSO control. The protocol: U2OS cells were transfected with empty vector control (“pcDNA”) or alpha-synuclein (“α-synuclein/pcDNA”) in combination with a scrambled (SCR) siRNA control (50 nM), or human SCD5 siRNA (10, 25 or 50 nM). (FIG. 12A) Cellular heath was assessed 48 h after transfection by evaluating ATP levels. Cell toxicity in the alpha-synuclein plus SCR siRNA was set as the floor of the assay, and then all samples were normalized to pcDNA with […] (set to 100%) to calculate the normalized percent rescue. Bars depict mean values of triplicate determinations; error bars indicate standard deviation. A two-tailed t-test was used to compare control conditions with SCR or SCD5 siRNA (*p 0.05). Cells transfected with alpha-synuclein were analyzed together by ANOVA with Dunnett's post-test to correct for multiple comparisons (**p 0.01, ****p 0.0001). Significance is shown for the comparison of each alpha-synuclein plus SCD5 siRNA concentration compared against the alpha-synuclein plus SCR control. (FIG. 12B) Quantitative RT-PCR was utilized to confirm the levels of SCD5 mRNA. […]
Powders of reference SCD inhibitors (CAY10566, A939572 and MF-438) were resuspended and serial diluted in DMSO. […] ATP content was then measured using the CellTiter-Glo® kit (Promega) with luminescence signals measured on an EnVision multimode plate reader (Perkin Elmer).

As to `Cc1nnc(-c2ccc(N3CCC(Oc4cc(F)ccc4Cl)CC3)nn2)o1` [CAY10566], the “cellular ATP levels in alpha-synuclein transfected U2OS cells” value is given as “significantly reversed alpha-synuclein-dependent decreases in ATP levels”.
